Reference: patent publication US7319153B2, “6,13-Bis(thienyl)pentacene compounds” (3M Innovative Properties Company, priority 2005, dated 2008)
Like-named read-outs stand apart in the source and are kept apart here.

Key:
[1] = Solubility in tetrahydrofuran-d8 by proton NMR of saturated solutions; type: physicochemical
Protocol: The solubility of each compound prepared in Examples 1 to 4 was determined by the following method. The proton NMR spectra of saturated solutions of the compounds prepared in Examples 1 to 4 dissolved in tetrahydrofuran-d8 were compared with the proton NMR spectrum of a standard solution (i.e., known concentration) of the compound of Example 2, which was 2-hexyl-5-[ 13-(5-hexylthien-2-yl)pentacene-6-yl]thiophene, dissolved in tetrahydrofuran-d8. The same lot of tetrahydrofuran-d8 was used to make all of the solutions. The standard solution was prepared by dissolving 7.0 mg of the compound of Example 2 in 936 mg of tetrahydrofuran-d8 to give a 0.742 weight percent solution. Saturated solutions of the compounds of Examples 1 to 4 were prepared by placing an excess of the corresponding compound in approximately 1 mL of tetrahydrofuran-d8 and mixing for 30 minutes. The solutions were filtered and placed in an NMR tube and the corresponding proton NMR spectra were obtained.
For the standard (0.742 weight percent solution of the compound of Example 2), the NMR integration for the absorption at 8.59 ppm (the most down-field absorption corresponding to the four protons at positions 5, 7, 12 and 14) was compared to the absorption of the residual protio-tetrahydrofuran at 3.6 ppm to give a relative ratio of moles of the compound of Example 2 to moles of protio-tetrahydrofuran of 0.33. The molar ratio of the compound of Example 2 to tetrahydrofuran (protio- and deutero-) in the standard solution is 8.83×10^−4. This molar ratio (8.83×10^−4) divided by the relative ratio of moles of the compound of Example 2 to moles of protio-tetrahydrofuran (0.33) gave a factor of 2.68×10^−3. Multiplying this factor by the proton NMR integration for the saturated solutions of the corresponding compounds of Example 1 to 4 gave the ratio of moles of pentacene derivative to moles of tetrahydrofuran in the saturated solutions. This allowed the calculation of the concentrations for the various solutions of compounds of Examples 1 to 4 as shown in the table below.

[2] = Stability in tetrahydrofuran (endoperoxide formation by proton NMR); type: physicochemical; conditions: for Mole percent impurity—120 hours: endoperoxide in tetrahydrofuran-d8 after 120 hours, protected from light; for Mole percent impurity—120 hours / Mole percent increase: room temperature; for Mole percent impurity—initial: endoperoxide in tetrahydrofuran-d8 solution; for Mole percent increase: increase of endoperoxide over 120 hours in tetrahydrofuran-d8, protected from light
Protocol: The solution stabilities of the compounds of Examples 1 to 4 were determined by proton NMR analysis of saturated solutions of the corresponding compounds in tetrahydrofuran-d8. Comparing the proton NMR integration of the four protons at positions 5, 7, 12 and 14 (8.51 ppm to 8.69 ppm) to the integration of the four corresponding protons from the endoperoxide (the major and only detectable decomposition product, 7.93 ppm to 7.98 ppm), the percent increase of this impurity was determined for each compound. The solutions were prepared by dissolving the corresponding compound in tetrahydrofuran-d8 and the proton NMR spectra were obtained to determine the initial concentration of endoperoxide for each sample. The solutions were allowed to stand protected from light at room temperature (i.e., 20° C. to 25° C.) for 120 hours. Proton NMR spectra of the aged samples were taken and the increase in absorption of the endoperoxide was used to calculate the data shown in Table 3. The formation of the endoperoxide is shown in the following reaction for compounds of Formula II.

[3] = isolation and purification; cited from earlier work
[4] = small quantity extracted into refluxing 1,2-dichlorobenzene; cited from earlier work
[5] = saturated solution in tetrahydrofuran-d8, mixed 30 minutes, filtered

Row | SMILES | Molarity in THF [1, 5] | Moles of compound/moles of THF [1, 5] | Weight percent in THF [1, 5] [weight percent] | Mole percent impurity—120 hours [2] [mole percent] | Mole percent impurity—initial [2] [mole percent] | Mole percent increase [2] [mole percent] | air and light sensitivity [3] | Molarity in THF [1] | Moles of compound/moles of THF [1] | time to bleaching [4]
1 | CCCCCCc1ccc(-c2c3cc4ccccc4cc3c(-c3ccc(CCCCCC)s3)c3cc4ccccc4cc23)s1 [Example 2, 2-hexyl-5-[13-(5-hexylthien-2-yl)pentacene-6-yl]thiophene] | 1.22 × 10^−1 | 1.08 × 10^−2 | 8.35 | 10.71 | 2.91 | 7.80 | – | – | – | –
2 | C[Si](C)(C)c1ccc(-c2c3cc4ccccc4cc3c(-c3ccc([Si](C)(C)C)s3)c3cc4ccccc4cc23)s1 [Example 3, trimethyl(5-{13-[5-(trimethylsilyl)thien-2-yl]pentacen-6-yl}thien-2-yl)silane] | 3.54 × 10^−2 | 2.94 × 10^−3 | 2.34 | 4.76 | 1.96 | 2.80 | – | – | – | –
3 | C[Si](C)(C)c1cc2cc3cc4cc5cc([Si](C)(C)C)c([Si](C)(C)C)cc5cc4cc3cc2cc1[Si](C)(C)C [2,3,9,10-tetrakis(trimethylsilyl)pentacene] | – | – | – | – | – | – | highly air- and light-sensitive | – | – | –
4 | c1csc(-c2c3cc4ccccc4cc3c(-c3cccs3)c3cc4ccccc4cc23)c1 [Example 1, 2-(13-thien-2-ylpentacene-6-yl)thiophene] | 6.58 × 10^−3 | 5.35 × 10^−4 | 0.327 | 21.26 | 5.66 | 15.60 | – | – | – | –
5 | c1csc(-c2ccc(-c3c4cc5ccccc5cc4c(-c4ccc(-c5cccs5)s4)c4cc5ccccc5cc34)s2)c1 [Example 4, 5-[13-(2,2′-bithien-5-yl)pentacen-6-yl]-2,2′-bithiophene] | – | – | 0.135 | 6.54 | 2.91 | 3.63 | – | 1.98 × 10^−3 | 1.61 × 10^−4 | –
6 | c1ccc2cc3cc4cc5ccccc5cc4cc3cc2c1 [pentacene] | – | – | – | – | – | – | – | – | – | less than 5 minutes
